Reference: article PMC9855386, “Obtaining a Monoclonal Antibody against a Novel Prometryn-Like Hapten and Characterization of Its Selectivity for Triazine Herbicides” (Biosensors, 2022)

System: 7D4 mAb
Experiment: ic-ELISA optimal combination of coated antigen and antibody (Table S3)
Assay type: binding, mouse
Details: prometryn 1000 ng/mL
Protocol: The ic-ELISA method was used to screen the best-performing fusion mouse sera. They were used to establish the standard curve of antibodies by detecting the supernatant of positive cells. The buffer required for ic-ELISA was the same as previously reported. The specific steps of the operation are as follows: (1) The coated antigen was added to the microplate by diluting it with the required coating solutions (CBS, pH 9.6, 0.05 mol/L). Each well contained 100 µL, which was incubated at 37 °C for three h before being washed three times with washing buffer (PBST, PBS containing 0.1% Tween-20). (2) With sample dilution buffer (PBSTG, PBST containing 0.1% gelatin), the standard prometryn sample and the antiserum/antibody from mice were diluted to the required concentration. The microplate was incubated for 30 min at 37 °C with 50 µL of diluted antiserum or antibody and standard samples of various concentrations. PBST was used three times to wash the dishes. (3) Then, 100 µL of PBSTG-diluent IgG HRP (labeled goat anti-mouse IgG with HRP) was added to each well. After 30 min at 37 °C, the plate was cleaned three times with PBST. (4) Each well was incubated for 15 min in the dark at 25 °C with 100 µL of TMB color developing solution. To stop the reaction, 50 µL of the hydrochloric acid solution was added to each well. The absorbance at OD450 nm was measured with a TECAN Infinite M200 PRO microplate reader from Männedorf, Switzerland.
The ic-ELISA method was used to determine the ideal antibody and antigen mix. The coating antigen and antibody concentration used in the experiment was 1 mg/mL. The dilution multiples of the coating were 1 × 10^3, 2 × 10^3, 4 × 10^3, and 8 × 10^3. The prometryn standard was 1000 ng/mL. The best concentration combination of antigen and antibody was selected to establish the standard curve of the antibody. Prometryn standards were diluted to 1000, 500, 250, 125, 62.5, 31.25, 15.625, 7.8125, 3.90625, and 0 ng/mL, with PBSTG for subsequent ic-ELISA experiments. The standard curve was determined by ic-ELISA. […] Each measured OD value in the curve is the average of three independent repeats. The 7D4 mAb’s inhibition rate was well linearly correlated with the prometryn concentration. […] The 7D4 mAb type was identified as IgG1 using a mouse antibody isotyping kit from Sigma®, St. Louis, MO, USA.

Which “IR (inhibition rate)” value (dilution of immunogen 1×103, dilution of serum 1.6×104) does the source give for CSc1nc(NC(C)C)nc(NC(C)C)n1 [Prometryn, 2-methylthio-4,6-di(isopropylamino)-1,3,5-triazobenzene] here?
Its value is 94%.

And the “IR (inhibition rate)” value (dilution of immunogen 1×103, dilution of serum 2×103)?
The value was 97%.

What about the “IR (inhibition rate)” value (dilution of immunogen 1×103, dilution of serum 3.2×104) of the same compound?
The value was 92%.

And the “IR (inhibition rate)” value (dilution of immunogen 1×103, dilution of serum 4×103)?
Its value is 98%.

And the “IR (inhibition rate)” value (dilution of immunogen 1×103, dilution of serum 8×103)?
Its value is 97%.

And the “IR (inhibition rate)” value (dilution of immunogen 2×103, dilution of serum 1.6×104)?
The value was 92%.

What about the “IR (inhibition rate)” value (dilution of immunogen 2×103, dilution of serum 2×103) of the same compound?
The value was 98%.

What about the “IR (inhibition rate)” value (dilution of immunogen 2×103, dilution of serum 3.2×104) of the same compound?
The value was 85%.

And the “IR (inhibition rate)” value (dilution of immunogen 2×103, dilution of serum 4×103)?
The value was 97%.

What about the “IR (inhibition rate)” value (dilution of immunogen 2×103, dilution of serum 8×103) of the same compound?
The value was 96%.

And the “IR (inhibition rate)” value (dilution of immunogen 4×103, dilution of serum 1.6×104)?
The value was 81%.

And the “IR (inhibition rate)” value (dilution of immunogen 4×103, dilution of serum 2×103)?
Its value is 97%.

And the “IR (inhibition rate)” value (dilution of immunogen 4×103, dilution of serum 3.2×104)?
Its value is 71%.

What about the “IR (inhibition rate)” value (dilution of immunogen 4×103, dilution of serum 4×103) of the same compound?
Its value is 95%.

What about the “IR (inhibition rate)” value (dilution of immunogen 4×103, dilution of serum 8×103) of the same compound?
Its value is 90%.

And the “IR (inhibition rate)” value (dilution of immunogen 8×103, dilution of serum 1.6×104)?
Its value is 67%.

What about the “IR (inhibition rate)” value (dilution of immunogen 8×103, dilution of serum 2×103) of the same compound?
Its value is 93%.

And the “IR (inhibition rate)” value (dilution of immunogen 8×103, dilution of serum 3.2×104)?
The value was 55%.

And the “IR (inhibition rate)” value (dilution of immunogen 8×103, dilution of serum 4×103)?
Its value is 90%.

What about the “IR (inhibition rate)” value (dilution of immunogen 8×103, dilution of serum 8×103) of the same compound?
Its value is 82%.
